{
  "source": "patent US12402629B2",
  "about": "“Aspergillus terreus strain and composition for controlling bacterial plant diseases using strain or culture filtrate thereof” (Andong National University Industry-Academic Cooperation …, priority 2022, dated 2025)",
  "key": {"Dickeya chrysanthemi [1]": {"system": "Dickeya chrysanthemi", "assay": "Pathogen inoculation experiment on potato (potato soft rot control effect)", "assay_type": "in vivo", "settings": "potato treated at the same time with D.c. suspension 2×10^6 cfu/ml and 400 ppm MPP (FIG. 6)", "protocol": "In order to test whether the culture filtrate of the Aspergillus terreus ANU-301 strain of the present disclosure has a control effect on potato soft rot caused by Dickeya chrysanthemi bacteria, a pathogen inoculation experiment was performed (FIG. 3).\nIn potato plants inoculated with Dickeya chrysanthemi bacteria (D.c.), browning progressed at the inoculation site, and symptoms of soft rot disease were confirmed.\nA pathogen inoculation experiment was conducted to test whether the MPP component present in the culture filtrate of the Aspergillus terreus ANU-301 strain of the present disclosure is effective in controlling potato soft rot disease caused by Dickeya chrysanthemi bacteria (FIG. 6). In potato plants inoculated with Dickeya chrysanthemi bacteria (D.c.), browning progressed at the inoculation site, and symptoms of soft rot disease were confirmed. […] Hereinafter, the present disclosure will be described in more detail with reference to Examples. However, these examples are presented merely to describe the present disclosure in more detail, and the scope of the present disclosure is not limited to these examples.\nIn order to evaluate the effect of the ANU-301 strain culture filtrate on potato soft rot inhibition, the culture filtrate was prepared as follows.\nThe ANU-301 strain was inoculated into sterilized potato dextrose broth (PDB) and cultured at 25° C. for 5 days. […]"}, "Dickeya chrysanthemi [2]": {"system": "Dickeya chrysanthemi", "assay": "Disc diffusion assay on NA medium", "assay_type": "cell-based", "settings": "paper filter disk wetted with 400 ppm of MPP, NA medium (FIG. 5)", "protocol": "To this end, the NA medium (Nutrient agar medium: peptone 5 g, beef extract 1.5 g, yeast extract 1.5 g, NaCl 5 g & agar 15 g/1 L) was smeared with Dickeya chrysanthemi bacteria. After placing a paper filter disk in the center of the medium, 10 μL of culture extract and 400 ppm of MPP were wetted therein, respectively, and the result of culturing the bacteria was observed."}},
  "note": "“Also recorded” adds a separate entry of the source.",
  "data": [
    {"compound": "CC(C)(c1ccccc1)c1ccc(O)c(C(C)(C)c2ccccc2)c1", "note": "[MPP, 2,4-bis(1-methyl-1-phenylethyl)-phenol]", "values": [
      {"measurement": "soft rot symptoms (disease control effect)", "setting": "Dickeya chrysanthemi [1]", "value": "soft rot symptoms were suppressed; also recorded: showed a disease inhibitory effect"},
      {"measurement": "bacterial growth / clear zone around the disk", "setting": "Dickeya chrysanthemi [2]", "value": "a clear zone was formed"}
    ]}
  ]
}
